This is an account of results in patent US12172988B2, “Anticancer and antifungal splice modulators” (priority 2021, dated 2024).

“Also recorded” adds a separate entry of the source. Like-named read-outs stand apart in the source and are kept apart here.

Experiment [1] has as its system HCT116 colorectal carcinoma cells. Description: MTS cell viability / cell growth inhibition assay. The note with it: for GI50: Homo sapiens, HCT-116, 72 h. Format: cell-based, human. As for the experimental part:
With milligram quantities of 1a-1i at hand, we began our studies to evaluate the relative efficacy of each analogue using cell growth inhibition studies in HCT116 colorectal carcinoma cells. As reported in FIG. 3, GI50 values were collected for each analog after a 72 h treatment using the MTS cell viability assay (Table 12). Under these conditions, the natural FD-895 (1), 3S-FD-895 (1a) 17S-FD-895 (1d), 17-methoxy-FD-895 (1e) provided activities of <10 nM.
HCT-116 cells was cultured in McCoy's 5a (Life Technologies) supplemented with 10% fetal bovine serum (FBS), 2 mM L-glutamine, and 100 U mL^−1 of penicillin and 100 μg mL^−1 of streptomycin at 37° C. in an atmosphere of 5% CO2. Compounds were dissolved in DMSO (MilliporeSigma). Cells were treated with 1-1j in media with ≥0.5% DMSO for 4-72 h.
Studies were conducted in […] cell culture plates. HCT-116 plated at 5×10^3 cells/well were cultured for 24 h and then treated with analogs 1-1j for 4-72 h, then washed twice with 100 μL PBS. PBS (100 μL) was added to each well, followed by 20 μL of CellTiter Aqueous One Solution (Promega). After 2 h at 37° C., absorbance readings were taken at 490 nm (test wavelength) and 690 nm (reference wavelength). GI50 values were calculated in Prism (GraphPad) using greater 3 replicates.
Cells were treated with 1 or 1a-1j in media (McCoy's 5a (Life Technologies) supplemented with 10% FBS, 2 mM L-glutamine, and 100 U mL^−1 of penicillin and 100 μg mL^−1 of streptomycin 0.5% DMSO) for 4 h or 24 h. Untreated cells were considered were used as negative control. Total RNA was isolated using mirVana miRNA isolation kit (Life Technologies). A 1 μg sample of RNA was subjected to DNAseI from a TURBO DNA free kit (Life Technologies). The cDNA was prepared by using SuperScript III reverse transcriptase kit (Life Technologies). The amount of unspliced RNA for different genes was determined using Power SYBR Green PCR master mix (Applied Biosystems) by qPCR using specific primers for each gene. qPCR using 2.5 μM of each primer was performed on 5 ng of the obtained cDNA. qPCR conditions were as follows: 95° C. for 10 min for one cycle, then 95° C. for 10 min for one cycle, then 95° C. for 30 s, 55° C. for 60 s, 72° C. for 60 s, for 40 cycles using the MXPro. Quantification cycle (Cq) values were identified for each sample, and then RNA levels were calculated using 2-ΔΔCT method. GAPDH was used as a control for normalization. At least three replicates were conducted for each compound. Namely, all genes explored in this study were evaluated from the same cell cultures. Here, individual cultures were used for each compound explored and at least three replicates were used for each compound. While experimental variation occurred between the different compound treatments, the levels of the different intron retention, exon skipping or RNA expression were collected from the same cellular material. Statistics were calculated using a standard one-way ANOVA; p values were represented so that * signifies p<0.0001. HCT116 were treated with analogs 1-1j ranging from 0.1-5000 nM for 72 hours, then cell viability was measured using the MTS assay. GI50 values and confidence intervals were calculated using GraphPad (Table 12).

A further experiment concerns SF2. Description: qPCR gene expression of alternative splicing factor SF2. Particulars: for SF2 RNA expression: HCT116, 24 h, 100, 250, 500 nM, compared to 1. The class given is cell-based, human. As for the experimental part:
(§1) HCT116 tumor cells were treated with each analogue at 20 times the G150 value (Table 12) for 4 hours and then cellular RNA was isolated and purified for qPCR. Primers were designed to evaluate intron retention or exon skipping, direct responses to splice modulator treatment. Genes evaluated included those involved in splicing regulation (SF3A1, SF3A3, SF3B1, SF3B2), apoptosis (MCL-1L), protein folding (DNAJB1), and cell cycle regulation (AURKA, PLK-1) relative to the unspliced control GAPDH. For alternative splicing regulator (SF2), primers were designed to evaluate gene expression, which changes in response splice modulator treatment for SF2 relative to the unspliced control GAPDH. (−) denotes untreated cells.
as §1, with “analogues” for “each analogue”, “100 nM (light grey), 250 nM (grey), or 500 nM (black)” for “20 times the G150 value (Table 12)”, “24 h” for “4 hours”, “(MCL-1L), and” for “(MCL-1L),”, “(DNAJB1),” for “(DNAJB1), and cell cycle regulation (AURKA, PLK-1)”, “(—)” for “(−)”
Next, we turned our efforts to explore the ability of these analogues to modulate splicing. […] We treated cells for 4 h so that we could evaluate early changes in splicing activity, and then cellular RNA was isolated and purified for analyses by qPCR (FIG. 14). Most importantly, none of the concentrations tested led to significant changes in cell viability, ensuring that changes in gene expression were not due to cell death.
For these studies, we evaluated the expression of genes involved in splicing regulation (SF3A1, SF3A3, SF3B1, SF3B2), apoptosis (MCL-1L), protein folding (DNAJB1), and cell cycle regulation (AURKA, PLK-1) relative to the unspliced control GAPDH. Primers were designed to evaluate intron retention or exon skipping, direct responses to splice modulator treatment. The master splicing regulator alternative splicing factor (SF2) was also evaluated, with the primers for this gene designed to evaluate overall gene expression, which changes in response to splice modulator treatment.
From this 4 h study (FIG. 14), a small set of analogs (1, 1b, 1g, 1d, 1e, 1i and 1j) were selected to evaluate if effects on splicing when presented for a longer 24 h period. […] Using identical procedures as that used for 4 h, HCT116 cells were treated with three concentrations (100 nM, 250 nM and 500 nM) of each analog for 24 h. […]
For orientation: In qPCR the cycle at which signal appears reflects the starting amount.

Take `CC[C@H](OC)[C@@H](C)[C@H]1O[C@@H]1[C@@H](O)[C@H](C)/C=C/C=C(\C)[C@H]1OC(=O)C[C@H](O)CC[C@@](C)(O)[C@@H](OC(C)=O)/C=C/[C@@H]1C` [Analog 1d, 17S-FD-895]: in experiment [1] (HCT-116 cells), the “cell growth inhibitory activity compared to FD-895” value is “retained potency; also recorded: comparable inhibitor of cell growth as 1”. The GI50 in experiment [1] (read-out: GI50 value) is 2.06 nM; in experiment [1] (read-out: GI50 value (text)), under 10 nM. For the same compound, in the experiment on SF2, the “SF2 RNA expression” value is “decreased effect at reducing”.

As for `CC[C@H](OC)[C@@H](C)[C@H]1O[C@@H]1[C@@H](O)[C@H](C)/C=C/C=C(\C)[C@H]1OC(=O)C[C@@H](O)CC[C@@](C)(O)[C@@H](OC(C)=O)/C=C/[C@@H]1C` [Analog 1g, 3S,17S-FD-895], the “fold less effective compared to 1a or 1d” value in experiment [1] (HCT116 GI50, compared to 1a or 1d) was 60 fold. Further, the “fold less active (GI50) than 1” value in experiment [1] (HCT116 cell growth inhibition, compared to 1) was 75 fold. For the same compound, the results for the GI50 in experiment [1] (read-out: GI50 value) and in experiment [1] (read-out: GI50 value (text)) were 131 nM and 130 nM, respectively. Further, the “down regulating the expression of SF2 RNA” value in the experiment on SF2 (HCT116, 4 h, 20 times GI50, qPCR) is recorded as “highest efficacy”. Also, the “SF2 RNA expression” value in the experiment with SF2 is reported as “reduced ability to inhibit SF2 RNA expression”.

`CC[C@H](OC)[C@@H](C)[C@@H]1O[C@H]1[C@@H](O)[C@H](C)/C=C/C=C(\C)[C@H]1OC(=O)C[C@H](O)CC[C@@](C)(O)[C@@H](OC(C)=O)/C=C/[C@@H]1C` [Analog 1i, 17S,18S,19S-FD-895]: the figures for the GI50 in experiment [1] (read-out: GI50 value) and in experiment [1] (read-out: GI50 value (text)) were 446 nM and 450 nM, respectively.

Take `CC[C@@H](OC)[C@H](C)[C@H]1O[C@@H]1[C@@H](O)[C@H](C)/C=C/C=C(\C)[C@H]1OC(=O)C[C@H](O)CC[C@@](C)(O)[C@@H](OC(C)=O)/C=C/[C@@H]1C` [Analog 1j, 17S,20S,21R-FD-895]: the GI50 in experiment [1] (read-out: GI50 value) came to 262 nM; in experiment [1] (read-out: GI50 value (text)) it was 260 nM.

What is called GI50 is the concentration at which growth is held to half of that of the control.
